Values quoted from earlier work in patent US9328120B2, “6-cycloalkyl-pyrazolopyrimidinones for the treatment of CNS disorders” (Boehringer Ingelheim International GmbH, priority 2010, dated 2016).

Key:
Murine PDE9A = Murine PDE9A (Mus musculus (Mouse), UniProt O70628); details: concentrations below 200 micromolar
human PDE9A = human PDE9A (Homo sapiens (Human), UniProt O76083); details: for inhibition on the isolated enzyme: concentrations of up to 100 micromolar (μM)
Chain of human PDE9A (O76083 whole entry): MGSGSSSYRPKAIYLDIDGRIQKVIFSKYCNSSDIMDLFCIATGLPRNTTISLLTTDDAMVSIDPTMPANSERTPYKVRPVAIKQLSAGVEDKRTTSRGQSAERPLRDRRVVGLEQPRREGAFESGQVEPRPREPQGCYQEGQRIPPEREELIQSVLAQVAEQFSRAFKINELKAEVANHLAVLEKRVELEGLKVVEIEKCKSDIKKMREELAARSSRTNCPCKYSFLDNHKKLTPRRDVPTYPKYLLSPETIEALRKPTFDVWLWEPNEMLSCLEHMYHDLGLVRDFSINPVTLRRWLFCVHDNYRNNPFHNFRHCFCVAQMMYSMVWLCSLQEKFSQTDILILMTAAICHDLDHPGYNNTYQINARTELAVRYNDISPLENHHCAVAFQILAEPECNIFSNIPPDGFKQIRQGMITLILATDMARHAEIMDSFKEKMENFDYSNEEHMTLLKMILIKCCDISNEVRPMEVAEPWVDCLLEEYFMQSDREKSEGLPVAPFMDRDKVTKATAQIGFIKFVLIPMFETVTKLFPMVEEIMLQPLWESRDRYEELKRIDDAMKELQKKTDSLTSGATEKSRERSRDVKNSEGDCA

Chain of Murine PDE9A (O70628 whole entry): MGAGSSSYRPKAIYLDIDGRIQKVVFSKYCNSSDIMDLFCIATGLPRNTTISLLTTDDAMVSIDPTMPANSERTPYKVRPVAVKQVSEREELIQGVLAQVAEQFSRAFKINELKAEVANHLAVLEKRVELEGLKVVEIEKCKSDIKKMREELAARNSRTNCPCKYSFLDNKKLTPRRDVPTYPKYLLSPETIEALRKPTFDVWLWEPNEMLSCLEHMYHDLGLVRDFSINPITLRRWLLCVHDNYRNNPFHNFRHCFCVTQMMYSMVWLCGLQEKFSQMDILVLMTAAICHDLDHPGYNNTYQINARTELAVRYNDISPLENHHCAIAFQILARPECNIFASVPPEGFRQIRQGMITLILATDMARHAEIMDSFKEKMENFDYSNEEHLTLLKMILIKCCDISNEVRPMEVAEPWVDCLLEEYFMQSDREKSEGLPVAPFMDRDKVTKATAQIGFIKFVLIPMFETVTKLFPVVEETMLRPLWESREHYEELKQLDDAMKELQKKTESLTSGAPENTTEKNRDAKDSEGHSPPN

Structure (SMILES)	inhibition of murine PDE9A (Murine PDE9A)	inhibition on the isolated enzyme (human PDE9A)	IC50 (human PDE9A; isolated human PDE9A enzyme)
CC(C)Cn1c(=O)n(C)c(=O)c2[nH]cnc21 [IBMX]	not inhibited	no inhibition	–
CC(=O)Nc1ccc(-c2c[nH]c(=O)cn2)cc1 [SKF94120]	–	no inhibition	–
COc1ccc(C2CNC(=O)C2)cc1OC1CCCC1 (stereo not shown) [rolipram]	–	no inhibition	–

More lines, now with the values ahead:

inhibition of murine PDE9A (Murine PDE9A)	inhibition on the isolated enzyme (human PDE9A)	IC50 (human PDE9A; isolated human PDE9A enzyme)	Structure (SMILES)
–	no inhibition	–	OCCN(CCO)c1nc(N2CCCCC2)c2nc(N(CCO)CCO)nc(N3CCCCC3)c2n1 [dipyridamole]
–	no inhibition	–	CCOC(=O)C1=C[C@]2(CC)CCCN3CCc4c(n1c1ccccc41)[C@@H]32 [vinpocetine]
–	–	35 micromolar (μM)	CCCOc1ccccc1-c1nc2nn[nH]c2c(=O)[nH]1 [zaprinast]
